Assay [1] deals with T1, Drosophila OR10a (Drosophila melanogaster, UniProt Q9VYZ1).
T1 construct: expressed in transfected cells
T1 sequence (Q9VYZ1 1-406): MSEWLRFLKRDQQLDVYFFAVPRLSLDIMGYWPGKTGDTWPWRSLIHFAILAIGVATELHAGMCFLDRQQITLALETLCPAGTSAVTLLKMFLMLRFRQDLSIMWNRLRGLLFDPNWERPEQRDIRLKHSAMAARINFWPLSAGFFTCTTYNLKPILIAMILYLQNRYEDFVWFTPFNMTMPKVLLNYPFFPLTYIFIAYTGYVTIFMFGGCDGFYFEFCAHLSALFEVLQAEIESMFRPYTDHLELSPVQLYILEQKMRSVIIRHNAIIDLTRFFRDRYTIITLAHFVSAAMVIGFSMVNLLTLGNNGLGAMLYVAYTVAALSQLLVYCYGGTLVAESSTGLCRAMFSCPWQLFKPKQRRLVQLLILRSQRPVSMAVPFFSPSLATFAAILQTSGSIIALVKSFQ
T1 sequence (Q9VNB5 1-486 partner): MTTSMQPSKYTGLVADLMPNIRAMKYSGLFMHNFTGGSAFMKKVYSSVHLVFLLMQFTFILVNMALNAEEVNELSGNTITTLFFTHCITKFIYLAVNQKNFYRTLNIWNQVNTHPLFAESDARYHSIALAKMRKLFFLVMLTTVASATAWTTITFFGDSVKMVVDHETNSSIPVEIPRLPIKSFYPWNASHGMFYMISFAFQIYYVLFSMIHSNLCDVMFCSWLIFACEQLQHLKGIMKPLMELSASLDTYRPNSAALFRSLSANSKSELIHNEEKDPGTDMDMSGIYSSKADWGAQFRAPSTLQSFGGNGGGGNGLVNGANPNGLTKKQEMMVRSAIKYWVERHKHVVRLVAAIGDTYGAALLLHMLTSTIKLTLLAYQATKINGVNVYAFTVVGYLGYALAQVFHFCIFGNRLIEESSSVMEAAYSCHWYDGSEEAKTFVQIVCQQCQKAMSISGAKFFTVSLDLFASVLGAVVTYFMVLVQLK
In words: Calcium ion fluorescence (GCaMP6) assay, OR10a stable HEK293 cell line. The class given is cell-based. The method, boiled down: (§1)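 Responses are VUAA1-normalized ΔF: each VOC-evoked calcium signal, (FMAX−F0)/F0 over 30 s after injection, divided by the same line's mean 50 µM VUAA1 response. Cells were doxycycline-induced HEK293 with GCaMP6 and the cognate Drosophila OR, in HEPES buffer pH 7.3; ligands tested 0.01–100 μM.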

Assay [2] concerns the target T2, Drosophila OR71a (Drosophila melanogaster, UniProt Q9VUK5).
T2 construct: expressed in transfected cells
T2 sequence (Q9VUK5 1-378): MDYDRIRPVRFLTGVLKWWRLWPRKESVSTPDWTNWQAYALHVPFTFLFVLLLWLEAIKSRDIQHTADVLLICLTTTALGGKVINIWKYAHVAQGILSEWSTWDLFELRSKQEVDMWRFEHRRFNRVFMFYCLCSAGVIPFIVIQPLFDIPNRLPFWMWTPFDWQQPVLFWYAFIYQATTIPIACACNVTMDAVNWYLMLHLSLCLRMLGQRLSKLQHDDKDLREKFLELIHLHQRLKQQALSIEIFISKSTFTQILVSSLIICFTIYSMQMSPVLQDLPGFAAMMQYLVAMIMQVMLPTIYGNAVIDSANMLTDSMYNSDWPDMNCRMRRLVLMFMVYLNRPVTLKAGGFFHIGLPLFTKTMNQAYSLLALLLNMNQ
T2 sequence (Q9VNB5 1-486 partner): T1 sequence (Q9VNB5 1-486 partner)
Kind of assay: Calcium ion fluorescence (GCaMP6) assay, OR71a stable HEK293 cell line. The class given is cell-based. Particulars: for activation at 1 µM / activation at 10 µM / activation at 100 µM: HEK293, read-out: OR71a response (VUAA1-normalized response); for Average response: OR71a cell line, VUAA1-normalized response, mean of biological replicates. A digest of the protocol: as §1

[3] abbreviates: 100 µM, OR10a clone G5, single plate 2019.12.05.
Setting [4] is: HEK293, 1 μM VOC, 50 μM VUAA1 = 1, responses not exceeding 0.05 considered 0, read-out: OR10a Average response (VUAA1-normalized).
Setting [5] is: HEK293, 10 μM VOC, 50 μM VUAA1 = 1, responses not exceeding 0.05 considered 0, read-out: OR10a Average response (VUAA1-normalized).
[6] abbreviates: HEK293, 100 μM VOC, 50 μM VUAA1 = 1, responses not exceeding 0.05 considered 0, read-out: OR10a Average response (VUAA1-normalized).
Where [7] appears, read: HEK293, read-out: OR10a response (VUAA1-normalized response), VOC concentration 1 μM.
[8] abbreviates: HEK293, read-out: OR10a response (VUAA1-normalized response), VOC concentration 10 μM.
Setting [9] is: HEK293, read-out: OR10a response (VUAA1-normalized response), VOC concentration 100 μM.
Setting [10] is: ligand concentration 1 (unit not given), threshold 0.05, below shown as 0.
The mark [11] stands for this setting: ligand concentration 10 (unit not given), threshold 0.05, below shown as 0.
The mark [12] stands for this setting: ligand concentration 100 (unit not given), threshold 0.05, below shown as 0.
Setting [13] is: concentration 1, normalized fluorescence change, values below 0.05 threshold given as 0.
[14] abbreviates: concentration 10, normalized fluorescence change, values below 0.05 threshold given as 0.
Setting [15] is: concentration 100, normalized fluorescence change, values below 0.05 threshold given as 0.

Where “and” joins values, the source holds several entries; their conditions need not be identical. Equal entries are not always repeated. Where two headings read alike, the source gives them in different places.

As for `CCCCOC(=O)CC` [butyl propanoate], the “DF norm, all technical replicates” value in assay [1] (setting [3]) came to 0. Moreover, the “DF norm, outlier technical replicates removed” value in assay [1] (setting [3]) came to 0. The “DF, outlier technical replicates removed” value in assay [1] (setting [3]) was 0. For the same molecule, the “DF, all technical replicates” value in assay [1] (100 µM, OR10a clone G5, single plate 2019.12.05, xc+0.1%DMSO) was 0. For the same molecule, the activation at 1 µM in assay [1] (setting [4]), in assay [1] (setting [7]) and in assay [2] was 0% in each case. Further, the activation at 10 µM in assay [1] (setting [5]), in assay [1] (setting [8]) and in assay [2] was 0% in each case. Further, the activation at 100 µM was determined as 3.44% in assay [1] (setting [6]), 0% in assay [1] (setting [9]) and 0% in assay [2]. Further, the “DF norm AVERAGE OR10a” value in assay [1] (setting [10]), in assay [1] (setting [11]) and in assay [1] (setting [12]) was 0 throughout. In addition, the results for the Average response in assay [2] (cc. 1 µM), in assay [2] (cc. 10 µM) and in assay [2] (cc. 100 µM) were 0.00, 0.00 and 0.03, respectively. Further, the “DF norm AVERAGE OR71a” value in assay [2] (setting [10]), in assay [2] (setting [11]) and in assay [2] (setting [12]) was 0 throughout.
Turning to `Cc1ccc(C)c(C)c1` [1,2,4-trimethylbenzene], the activation at 1 µM in assay [1] (setting [4]) worked out at 7%; in assay [1] (setting [7]), 7%; in assay [2], 0%. Moreover, the activation at 10 µM in assay [1] (setting [5]), in assay [1] (setting [8]) and in assay [2] was 0% throughout. The activation at 100 µM in assay [1] (setting [6]) was determined as 2.53%; in assay [1] (setting [9]) it was 0%; in assay [2], 0%. Further, the Average response in assay [2] (cc. 1 µM), in assay [2] (cc. 10 µM) and in assay [2] (cc. 100 µM) was 0.00 in each case. In addition, the “DF norm AVERAGE OR71a” value in assay [2] (setting [13]), in assay [2] (setting [14]) and in assay [2] (setting [15]) was 0 in each case.
Take `CCCCCCCCC(CO)CCCCCC` (stereo not drawn) [2-hexyl-1-decanol]: in assay [1], the “DF norm AVERAGE OR10a” value is 0.1461 and 0.1055 and 0.1938. In addition, the values for the activation at 1 µM in assay [1] (setting [4]), in assay [1] (setting [7]) and in assay [2] were 15%, 15% and 0%, respectively. In addition, the figures for the activation at 10 µM in assay [1] (setting [5]), in assay [1] (setting [8]) and in assay [2] were 11%, 11% and 0%, respectively. The activation at 100 µM in assay [1] (setting [6]) is 19%; in assay [1] (setting [9]), 19%; in assay [2] it was 0%. In addition, the Average response in assay [2] (cc. 1 µM), in assay [2] (cc. 10 µM) and in assay [2] (cc. 100 µM) was 0.00 in each case. In addition, the “DF norm AVERAGE OR71a” value in assay [2] (setting [13]), in assay [2] (setting [14]) and in assay [2] (setting [15]) was 0 throughout.
In the case of `C=C1[C@H]2CC[C@@H]3[C@H]2C(C)(C)CCC[C@]13C` [(+)-longifolene], the “OR10a Average response (VUAA1-normalized)” value in assay [1] (1 μM VOC, 50 μM VUAA1 = 1, responses not exceeding 0.05 considered 0) turned out to be 0.08; in assay [1] (10 μM VOC, 50 μM VUAA1 = 1, responses not exceeding 0.05 considered 0), 0.0537; in assay [1] (100 μM VOC, 50 μM VUAA1 = 1, responses not exceeding 0.05 considered 0), 0.028. Also, the “OR10a response (VUAA1-normalized response)” value in assay [1] (VOC concentration 1 μM) was 0.08; in assay [1] (VOC concentration 10 μM), 0.0537; in assay [1] (VOC concentration 100 μM) it was 0.00. Further, in assay [1] (setting [14]), the “DF norm AVERAGE OR10a” value came out at 0.05372. Further, the Average response in assay [2] (cc. 1 µM) is 0.00; in assay [2] (cc. 10 µM) it was 0.03; in assay [2] (cc. 100 µM), 0.0431. Also, the “OR71a response (VUAA1-normalized response)” value in assay [2] (VOC concentration 1 μM), in assay [2] (VOC concentration 10 μM) and in assay [2] (VOC concentration 100 μM) was 0.00 throughout. For the same molecule, the “DF norm AVERAGE OR71a” value in assay [2] (setting [13]), in assay [2] (setting [14]) and in assay [2] (setting [15]) was 0 throughout.

The record behind these values is article PMC10709440, “High-throughput ligand profile characterization in novel cell lines expressing seven heterologous insect olfactory receptors for the detection of volatile plant biomarkers” (Scientific Reports, 2023).
